Test results reported in patent US20130244950A1, “COMBINATION THERAPY FOR CHEMORESISTANT CANCERS” (CELGENE CORPORATION, priority 2011, published 2013).
Like-named read-outs stand apart in the source and are kept apart here.

What was measured:
[1] = system: ccRCC cell lines A498 and KIJ265T and TNBC cell lines MDA231 and BT20; assay: Drug treatments and proliferation assay (cell counting, Coulter Particle Counter); type: cell-based, Human
Description: Human renal cell carcinoma cell lines A498 (ATCC, Manassas, Va.) and KIJ265T (derived from primary tumor site stage 4 human renal cell carcinoma patient tissue established in the Copland laboratory), as well as triple negative breast cancer cell lines BT-20 (ATCC) and MDA-231 (ATCC) were maintained in phenol red free DMEM medium (Cellgro, Herndon, Va.) supplemented with 10% FBS (Hyclone, Logan, Utah) and penicillin-streptomycin (Invitrogen, Carlsbad, Calif.) at 37° C. in humidified conditions with 5% CO2.
DMSO was used for vehicle control. […] Cells were trypsinized 24 hours later and counted.

BT20 cell line = assay: Cell death analysis via flow cytometry (propidium iodide); type: cell-based, Human; conditions: 5 nM romidepsin and/or 1 μM decitabine, 72 hour treatment
[2] = cited from earlier work
KIJ265T ccRCC cell line = assay: Cell death analysis via flow cytometry (propidium iodide); type: cell-based, Human; conditions: 5 nM romidepsin and/or 1 μM decitabine, 72 hour treatment
Description: Cells were treated with the optimal combinatorial therapy and appropriate control groups were prepared. After 72 hour treatment both adhered and floating cells were collected, centrifuged at 4° C., and washed using DPBS. Cells were centrifuged and re-suspended in 1× cold binding buffer (BD Pharmingen, San Jose, Calif.) at a concentration of 1×10^6 cells per ml. Cells were stained for 10 minutes with propidium iodide (BD Pharmingen), and FACS analysis was performed using Accuri C6 flow cytometer (Accuri, Ann Arbor, Mich.). Unstained cells were used as controls for setting the cell population parameters.

[3] = system: PARP cleavage in KIJ265T and MDA-231 parent cell lines; assay: PARP cleavage after recombinant human sFRP1; type: cell-based; conditions: single dose of 1.4 nM sFRP1
MDA231 and KIJ265T cells = assay: Proliferation of cells treated with recombinant human sFRP1; type: cell-based; conditions: escalating doses of recombinant sFRP1 in the media, 72 hours
Description: For the treatment of cells with recombinant human sFRP1, MDA231 and KIJ265T cells were seeded in a 96-well culture plate at 5000 cells per well in 100 μl DMEM supplemented with PSA and 10% FBS. After overnight incubation, cells were washed in PBS and 100 μl of serum free DMEM containing the final concentration of sFRP1 was added. The cells were incubated for 6 hours Serum was re-introduced to these wells to a final concentration of 2% FBS. Plates were incubated for 72 hours before cells were trypsinized and counted.

Molecule: C/C=C1\NC(=O)[C@H]2CSSCC/C=C/[C@H](CC(=O)N[C@H](C(C)C)C(=O)N2)OC(=O)[C@H](C(C)C)NC1=O [romidepsin, (1S,4S,7Z,10S,16E,21R)-7-ethylidene-4,21-bis(1-methylethyl)-2-oxa-12,13-dithia-5,8,20,23-tetrazabicyclo[8.7.6]tricos-16-ene-3,6,9,19,22-pentone]
- cell death in single treatment samples ([1]; 5 nM romidepsin, 3 day exposure): ~50%
- inhibition of cell proliferation ([1]; romidepsin alone, 2.5-100 nM dose range, 72 hours post drug exposure): significant inhibition of cell proliferation
- cell death induced compared to DMSO controls (BT20 cell line): 5.8%

Molecule: Nc1ncn([C@@H]2O[C@H](CO)[C@@H](O)[C@H]2O)c(=O)n1 [azacitidine, 4-amino-1-β-D-ribofuranozyl-s-triazin-2(1H)-one]
- solubility ([2]; acetone, ethanol and methyl ketone): insoluble
- solubility ([2]; dimethylsulfoxide (DMSO)): soluble
- solubility ([2]; ethanol/water (50/50), propylene glycol and polyethylene glycol): slightly soluble
- solubility ([2]; water, water-saturated octanol, 5% dextrose in water, N-methyl-2-pyrrolidone, normal saline and 5% Tween 80 in water): sparingly soluble

Molecule: Nc1ncn([C@H]2C[C@H](O)[C@@H](CO)O2)c(=O)n1 [decitabine, 4-amino-1-(2-deoxy-β-D-erythro-pentofuranosyl)-1,3,5-triazin-2(1H)one]
- effect on cell proliferation ([1]; decitabine alone, all tested doses (0.01 μM to 10 μM), 72 hours post drug exposure): minimal effect on cell proliferation
- cell death induced above DMSO treated controls (KIJ265T ccRCC cell line): 6.3%
- solubility ([2]; dimethylsulfoxide (DMSO)): soluble
- solubility ([2]; ethanol/water (50/50), methanol/water (50/50) and methanol): slightly soluble
- solubility ([2]; water): sparingly soluble

B1: recombinant human sFRP1: recombinant human secreted frizzled related protein 1, negative regulator of Wnt signaling (protein, UniProt Q8N474 32-314, looked up)
Secreted frizzled-related …: SEYDYVSFQSDIGPYQSGRFYTKPPQCVDIPADLRLCHNVGYKKMVLPNLLEHETMAEVKQQASSWVPLLNKNCHAGTQVFLCSLFAPVCLDRPIYPCRWLCEAVRDSCEPVMQFFGFYWPEMLKCDKFPEGDVCIAMTPPNATEASKPQGTTVCPPCDNELKSEAIIEHLCASEFALRMKIKEVKKENGDKKIVPKKKKPLKLGPIKKKDLKKLVLYLKNGADCPCHQLDNLSHHFLIMGRKVKSQYLLTAIHKWDKKNKEFKNFMKKMKNHECPTFQSVFK
- induction of apoptosis (PARP cleavage) [3]: induction of apoptosis as seen by PARP cleavage
- cell proliferation (MDA231 and KIJ265T cells): dose-dependent decrease
